Measurements reported in patent US20220184084A1, “COMPOSITIONS AND METHODS FOR TREATING CUSHING'S DISEASE” (The Regents of the University of California, priority 2019, published 2022).
Where two headings read alike, the source gives them in different places. Starred links: 1 amine or outer side, 2 acyl side, 3 side chain; linkers in the order of their positions; H or OH if unused. Non-standard residues stand in square brackets, D forms with d. Residues, ends and D or L forms follow the SMILES beside them. Groups on a side chain read outwards from the residue. *: point of attachment. Ethylenediamine = C(CN[*:2])N[*:1]; Hyp = O=C(O)[C@@H]1C[C@@H](O)CN1; Phg = N[C@H](C(=O)O)c1ccccc1; CO = O=C([*:1])[*:2]; Bn = c1ccc(C*)cc1

Tests used:
AtT20 cells [1] = assay: ACTH AlphaLISA assay, screen of kinase inhibitor library; type: cell-based, murine; details: Mus musculus, read-out: ACTH Inhibition (%)
Method: The latter mouse antibody is then trapped by an anti-mouse IgG (Fc specific) conjugated to acceptor beads, bringing the donor and acceptor beads into close proximity. […] Conversely if the cell SN ACTH is reduced following treatment with an ACTH inhibitor, the Alpha signal is restored.
One column (#1) with vehicle treatment only, and two cell-free columns (#23 & 24) were included as AlphaLISA signal negative and positive controls respectively to monitor assay performance.
Thereafter, 2 μL of cell culture supernatant was transferred from the black culture plate into a white low volume assay plate (Corning) using Vprep (Agilent) equipped with Velocity 11 Biocel 1800 (Agilent). 1 μL of biotinylated ACTH peptide solution (AnaSpec) and 1 μL of anti-ACTH antibody solution (EMD) is added sequentially into the low volume assay plate using AquaMax DW4 (Molecular Devices) Following a 1 h incubation, 1 μL donor and acceptor beads (PerkinElmer) were added to the assay plate using ELx405 (BioTek). Optical seals (Sigma) are used to minimize assay evaporation during the subsequent 2 h incubation. The assay plate is then transferred by a Thermo Spinnaker robotic arm to Envision (PerkinElmer) for AlphaLISA signal detection.

AtT20 cells [2] = assay: Nuclei staining (Hoechst 33342 dye), screen of kinase inhibitor library; type: cell-based, murine; details: Mus musculus; for inhibition at 1 µM / inhibition at 10 µM: read-out: Nuclei Inhibition (%)
Method: This plate was incubated in a Cytomat 6000 sealed with gas permeable polyurethane film (USA Scientific) and imaged on ImageXpress^XL (Molecular Devices). All these instruments are integrated on a Beckman Coulter SAMI automation platform which tracks timing to ensure accuracy and consistency of all steps.

AtT20 cells [3] = assay: AtT20 cell proliferation IC50 (CellTiter-Glo); type: cell-based, murine; details: read-out: IC50 for proliferation inhibition
Method: The IC50 values were calculated using sigmoidal dose-response curve (GraphPad Prism).

AtT20 cells [4] = assay: ACTH secretion in AtT20 cells (ELISA); type: cell-based, murine; details: for EC50: Mus musculus, read-out: EC50 for ACTH secretion inhibition
Method: The EC50 for ACTH secretion inhibition were calculated using a sigmoidal dose-response curve (GraphPad Prism).
FIG. 6F depicts the results of a study wherein AtT20 cells were treated with panobinostat and burparlisib simultaneously to detect the effects on ACTH secretion.

AtT20 cells [5] = assay: Relative proliferation rate, panobinostat and buparlisib alone and combined; type: cell-based, murine; details: Veh 1.0±0.06
Method: FIG. 6G depicts the results of a study wherein AtT20 cells were treated with panobinostat and burparlisib simultaneously to detect the effects on cell proliferation.

[6] = system: AtT20 cells stably transfected with POMC promoter driven luciferase; assay: POMC promoter-driven luciferase assay (POMC-Luc); type: cell-based, murine; details: 1 day
Excerpt: Using a POMC promoter-driven luciferase assay, the direct actions of the aforementioned compounds on POMC transcription was examined.

AtT20 cells [7] = assay: POMC mRNA expression in AtT20 cells by real time PCR; type: cell-based, murine; details: 20 nM to 1.25 nM, 24 h, RT-PCR
Method: The POMC mRNA expression […] values were determined by real time PCR.
FIG. 6I depicts the results of a study wherein AtT20 cells were treated with panobinostat and burparlisib simultaneously to detect the effects on POMC mRNA expression.

[8] = system: human corticotroph tumor primary cultures; assay: Proliferation of human corticotroph tumor primary cultures (CellTiter-Glo); type: cell-based; details: two human primary corticotroph tumor cultures, 3 days, read-out: IC50 anti-proliferative effect
[9] = system: human corticotroph tumor primary cultures; assay: ACTH secretion in human corticotroph tumor primary culture (ELISA); type: cell-based; details: Vehicle 3.7±0.2
[10] = system: AtT20 cells inoculated into athymic nude mice; assay: Xenograft model of Cushing disease; type: in vivo, athymic nude mice (Nu/J strain); details: 300 mg/kg oral gavage daily, 18 days
Method: Animal bodyweight was recorded daily. […] Tumor size was recorded daily. […] Tumor size was measured post euthanizer. […] Tumor weight was measured post euthanizer. […] Blood samples were collected by cardiac puncture and plasma ACTH levels were measured by ELISA. […] Blood samples were collected by cardiac puncture and plasma corticosterone levels were measured by ELISA. […] AtT20 cells (2×10^5/animal) were injected into the hind flank region of athymic nude mice (Nu/J strain from Jackson lab). […] During 18-days of CUDC-907-treatment, animal bodyweight (FIG. 4A) and tumor sizes (FIG. 4B) were measured daily. Upon experiment completion, the animals were euthanized and tumors were harvested, and weighed. Blood samples were collected by cardiac puncture.

AtT20 cells [11] = assay: Expression of POMC regulators (Nurr1, Nur77, LXRα, GR) after treatment; type: cell-based, murine
Excerpt: Accordingly, the expressions of several nuclear receptors, known as POMC positive and negative regulators, including Nurr1 (NR4A2), Nur77 (NR4A1), LXRα (NR1H3), and GR (NR3C1), were examined.

Nurr1 = Nurr1 interaction with HDACs and Nurr1 phosphorylation by immunoprecipitation; type: cell-based
Excerpt: FIG. 7F depicts the interactions between Nurr1, HDACs, and Nurr1 phosphorylation, as detected by immunoprecipitation.

AtT20 cells [12] = assay: c-Myc and cell cycle inhibitor mRNA by real time PCR; type: cell-based; details: murine corticotroph tumor cells, 5 nM, 24 h
AtT20 cells [13] = assay: Histone acetylation (H3K9) and AKT pathway activation in AtT20 cells; type: cell-based, murine; details: 3 days
[14] = system: murine corticotroph tumor Caspase-3/7; assay: Caspase-Glo3/7 assay; type: cell-based; details: 24 hours
[15] = background statement; cited from earlier work
[16] = 72 h, 100 nM, AtT20 cells, 3 days
[17] = 72 h, 1 μM, AtT20 cells, 3 days
[18] = 72 h, 10 μM, AtT20 cells, 3 days
[19] = Mus musculus, AtT20, 72 h, 3 day-treatment
[20] = Mus musculus, AtT20, 72 h, 3 days

Cc1nc(Nc2n[nH]c3c2CN(C(=O)N[C@H](CN(C)C)c2ccccc2)C3(C)C)c2sccc2n1 [PF-3758309]
inhibition at 0.1 µM (AtT20 cells [1]; [16]): 70.4%
inhibition at 1 µM (AtT20 cells [1]; [17]): 70.2%
inhibition at 10 µM (AtT20 cells [1]; [18]): 77.5%
inhibition at 0.1 µM (AtT20 cells [2]; 72 h, AtT20 cells, 3 days): 91.5%
inhibition at 1 µM (AtT20 cells [2]; [17]): 95.6%
inhibition at 10 µM (AtT20 cells [2]; [18]): 95.2%

Cc1[nH]c2ccccc2c1CCNCc1ccc(/C=C/C(=O)NO)cc1 [panobinostat]
IC50 (AtT20 cells [3]; [19]): 20 nM
EC50 (AtT20 cells [4]): 4 nM
ACTH secretion (AtT20 cells [4]; panobinostat 5 nM alone, Veh 39.6±2): 28.7 ± 0.1 ng/mL
ACTH secretion (AtT20 cells [4]; panobinostat 10 nM alone, Veh 39.6±2): 13.6 ± 1 ng/mL
inhibition of ACTH secretion (AtT20 cells [4]; panobinostat 5 and 10 nM alone): up to 66%
Relative Proliferation Rate (AtT20 cells [5]; panobinostat 5 nM alone): 1.0±0.01
Relative Proliferation Rate (AtT20 cells [5]; panobinostat 10 nM alone): 0.8±0.005

CCc1cnn2c(NCc3ccc[n+]([O-])c3)cc(N3CCCC[C@H]3CCO)nc12 [Dinaciclib (SCH727965)]
inhibition at 0.1 µM (AtT20 cells [1]; [16]): 58.1%
inhibition at 1 µM (AtT20 cells [1]; [17]): 77.3%
inhibition at 10 µM (AtT20 cells [1]; [18]): 69.2%
inhibition at 0.1 µM (AtT20 cells [2]; 72 h, AtT20 cells, 3 days): 92%
inhibition at 1 µM (AtT20 cells [2]; [17]): 98.3%
inhibition at 10 µM (AtT20 cells [2]; [18]): 98%

CS(=O)(=O)N1CCN(Cc2cc3nc(-c4cccc5[nH]ncc45)nc(N4CCOCC4)c3s2)CC1 [pictilisib]
IC50 (AtT20 cells [3]; [20]): 800 nM
effect on POMC transcription [6]: increased POMC transcription at higher doses

COc1ccc(-c2nc(N3CCOCC3)c3sc(CN(C)c4ncc(C(=O)NO)cn4)cc3n2)cn1 [CUDC-907]
inhibition at 0.1 µM (AtT20 cells [1]; [16]): 84.7%
inhibition at 1 µM (AtT20 cells [1]; [17]): 80.1%
inhibition at 10 µM (AtT20 cells [1]; [18]): 80%
inhibition at 0.1 µM (AtT20 cells [2]; 72 h, AtT20 cells, 3 days): 90.1%
inhibition at 1 µM (AtT20 cells [2]; [17]): 99.2%
inhibition at 10 µM (AtT20 cells [2]; [18]): 99.3%
IC50 (AtT20 cells [3]; 3 day-treatment): 5.1 nM
IC50 (AtT20 cells [3]; [19]): 5 nM
effect on POMC mRNA expression (AtT20 cells [7]): potent reduction in POMC mRNA expression
reduction of ACTH secretion (AtT20 cells [4]; 1.25 nM): 59%
ACTH secretion (AtT20 cells [4]; 1.25 nM, 24 h, Vehicle 30±19): 12 ± 2.4 ng/mL
ACTH secretion (AtT20 cells [4]; 2.5 nM, 24 h, Vehicle 30±19): 12 ± 5.7 ng/mL
EC50 (AtT20 cells [4]): 1 nM
ACTH secretion (AtT20 cells [4]; concentration not given, 24 h, Vehicle 30±19): 15 ± 2.2 ng/mL
IC50 ([8]; Homo sapiens, 72 h): 3 nM
IC50 [8]: 5 nM
ACTH secretion [9]: 1.9 ± 0.001 ng/mL
reduction of plasma ACTH level ([10]; vs controls): 77%
reduction of plasma corticosterone level ([10]; vs controls): 85%
reduction in tumor size ([10]; vs vehicle): ~35%
reduction in tumor weight ([10]; vs vehicle): 44%
tumor weight ([10]; Control 0.098±0.02): 0.04±0.006 gram
tumor volume ([10]; Control 0.17±0.05): 0.065±0.02 cm^3
Plasma corticosterone ([10]; Control 180±87): 27 ± 4.66 ng/mL
Plasma ACTH ([10]; Control 206.1±27.2): 47.4 ± 7.3 pg/mL
EC50 ([6]; Mus musculus, 24 h, read-out: EC50 for POMC transcription inhibition): 0.5 nM
Nurr1 expression (AtT20 cells [11]; 1.25 nM, 24 h): reduction in Nurr1 expression
LXRα expression (AtT20 cells [11]; 5 and 10 nM, 24 h): reductions
Nur77 expression (AtT20 cells [11]; 5 and 10 nM, 24 h): reductions
Nurr1 protein expression (AtT20 cells [11]; 6 h-treatment): dramatic inhibition
GR expression (AtT20 cells [11]; 24 h): minor effects
Nurr1 mRNA expression (AtT20 cells [11]; real time PCR): inhibition of Nurr1 mRNA expression
Nurr1 interaction with HDAC-1, 2, 3, but not HDAC10 (Nurr1): unaffected
Nurr1 serine/threonine phosphorylation levels (Nurr1): dramatically inhibited
c-Myc mRNA expression (AtT20 cells [12]): increased
AKT activation and downstream target 4E-BPI (AtT20 cells [13]): blocked
histone acetylation Ac-H3-K9 (AtT20 cells [13]): elevated histone acetylation
activity of caspase-3 and -7 [14]: increasing the activity

COc1ccc(-c2ccc3ncc4c(c3c2)n(-c2ccc(N3CCNCC3)c(C(F)(F)F)c2)c(=O)n4C)cn1 [BGT226 (NVP-BGT226)]
inhibition at 0.1 µM (AtT20 cells [1]; [16]): 57.5%
inhibition at 1 µM (AtT20 cells [1]; [17]): 86.3%
inhibition at 10 µM (AtT20 cells [1]; [18]): 88.2%
inhibition at 0.1 µM (AtT20 cells [2]; 72 h, AtT20 cells, 3 days): 94.3%
inhibition at 1 µM (AtT20 cells [2]; [17]): 99%
inhibition at 10 µM (AtT20 cells [2]; [18]): 95.4%

NCCCC[C@@H]1NC(=O)[C@@H](Cc2c[nH]c3ccccc23)NC(=O)[C@H](c2ccccc2)NC(=O)[C@@H]2C[C@@H](OC(=O)NCCN)CN2C(=O)[C@H](Cc2ccccc2)NC(=O)[C@H](Cc2ccc(OCc3ccccc3)cc2)NC1=O [pasireotide] (cyclo([Hyp]([CO-Ethylenediamine])[Phg][dW]KY(Bn)F))
patients in whom the drug causes diabetes [15]: approximately 50%

Nc1cc(C(F)(F)F)c(-c2cc(N3CCOCC3)nc(N3CCOCC3)n2)cn1 [buparlisib]
IC50 (AtT20 cells [3]; [20]): 500 nM
effect on ACTH secretion (AtT20 cells [4]; buparlisib alone): did not inhibit ACTH secretion
effect on POMC transcription [6]: increased POMC transcription at higher doses
Relative Proliferation Rate (AtT20 cells [5]; buparlisib 62.5 nM alone): 1.0±0.06

CC[C@@H]1C(=O)N(C)c2cnc(Nc3ccc(C(=O)NC4CCN(C)CC4)cc3OC)nc2N1C1CCCC1 [BI 2536]
inhibition at 0.1 µM (AtT20 cells [1]; AtT20, 72 h): 54.9%
inhibition at 1 µM (AtT20 cells [1]; AtT20, 72 h): 82%
inhibition at 10 µM (AtT20 cells [1]; AtT20, 72 h): 77.7%
inhibition at 1 µM (AtT20 cells [2]; AtT20, 72 h): 92.3%
inhibition at 10 µM (AtT20 cells [2]; AtT20, 72 h): 94%
